Consider seven compounds from PMC9962794, “A Novel and Functionally Diverse Class of Acetylcholine-Gated Ion Channels” (The Journal of Neuroscience, 2023).

The structures appear in SMILES notation. Where two headings read alike, the source gives them in different places.

Common to all, as to assay: two-electrode voltage clamp, oocytes
Holding throughout (type): cell-based
In general terms: Two-electrode voltage clamp is typically applied to oocytes expressing channels or transporters.

For assay [1], the target named is T1, LGC-39 (Caenorhabditis elegans, UniProt O17402).
T1 construct: full-length cDNA by gene synthesis, KSM vector, cRNA in Xenopus laevis oocytes; homomeric pentameric channel
T1 sequence (O17402 22-563): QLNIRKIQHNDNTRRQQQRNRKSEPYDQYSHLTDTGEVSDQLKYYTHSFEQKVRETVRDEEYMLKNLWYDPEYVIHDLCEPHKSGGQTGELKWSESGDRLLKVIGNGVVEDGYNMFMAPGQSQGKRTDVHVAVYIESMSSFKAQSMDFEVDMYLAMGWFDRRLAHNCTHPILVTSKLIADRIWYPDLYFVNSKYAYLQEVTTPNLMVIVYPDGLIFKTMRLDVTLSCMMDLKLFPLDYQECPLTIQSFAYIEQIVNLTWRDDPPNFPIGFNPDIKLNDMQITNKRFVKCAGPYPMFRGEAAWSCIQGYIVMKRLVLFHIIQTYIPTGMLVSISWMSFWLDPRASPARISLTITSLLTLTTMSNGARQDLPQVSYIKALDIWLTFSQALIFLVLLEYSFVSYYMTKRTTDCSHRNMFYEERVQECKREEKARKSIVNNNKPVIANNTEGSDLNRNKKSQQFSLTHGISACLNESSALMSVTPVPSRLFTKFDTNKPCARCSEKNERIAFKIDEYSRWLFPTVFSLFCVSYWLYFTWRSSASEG

Assay [2] deals with T1, LGC-39. This is another data set of the same source.
Assay [3] has as its target T2, LGC-49 (Caenorhabditis elegans, UniProt Q21420).
T2 construct: full-length cDNA in KSM vector, cRNA in Xenopus laevis oocytes; homomeric pentameric channel
T2 sequence (Q21420 26-457): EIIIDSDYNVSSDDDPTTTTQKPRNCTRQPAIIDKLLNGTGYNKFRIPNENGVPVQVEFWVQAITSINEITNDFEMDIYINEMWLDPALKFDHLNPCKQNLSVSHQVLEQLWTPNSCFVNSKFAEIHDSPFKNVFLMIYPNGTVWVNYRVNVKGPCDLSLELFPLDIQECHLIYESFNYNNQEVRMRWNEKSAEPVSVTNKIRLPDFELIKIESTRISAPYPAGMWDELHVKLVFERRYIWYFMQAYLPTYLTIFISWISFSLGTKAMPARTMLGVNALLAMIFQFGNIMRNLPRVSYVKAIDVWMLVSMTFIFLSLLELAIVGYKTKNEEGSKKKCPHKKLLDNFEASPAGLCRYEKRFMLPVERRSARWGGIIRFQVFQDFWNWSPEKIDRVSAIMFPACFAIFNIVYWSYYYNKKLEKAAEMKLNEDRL

Assay [4] has as its target T3, LGC-57 (Caenorhabditis elegans, UniProt Q09453).
T3 construct: full-length untagged cDNA in KSM vector, cRNA in Xenopus laevis oocytes; pentameric, expressed alone
T3 sequence (Q09453 20-473): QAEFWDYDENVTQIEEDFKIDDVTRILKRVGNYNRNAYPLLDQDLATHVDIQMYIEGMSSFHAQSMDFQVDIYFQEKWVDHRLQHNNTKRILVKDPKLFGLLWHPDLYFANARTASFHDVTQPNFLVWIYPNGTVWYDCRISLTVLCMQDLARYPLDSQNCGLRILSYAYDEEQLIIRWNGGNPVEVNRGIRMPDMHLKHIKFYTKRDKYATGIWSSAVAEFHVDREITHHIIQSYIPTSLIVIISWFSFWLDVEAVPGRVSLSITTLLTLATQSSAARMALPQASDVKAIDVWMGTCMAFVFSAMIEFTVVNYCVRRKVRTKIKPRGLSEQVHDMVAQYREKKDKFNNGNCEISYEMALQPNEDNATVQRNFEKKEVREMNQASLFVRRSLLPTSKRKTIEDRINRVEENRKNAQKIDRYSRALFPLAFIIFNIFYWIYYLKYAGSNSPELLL

For assay [5], the target named is T4, LGC-46 (Caenorhabditis elegans, UniProt Q95Y52).
T4 construct: full-length cDNA in KSM vector, cRNA in Xenopus laevis oocytes; pentameric, expressed alone
T4 sequence (Q95Y52 19-508): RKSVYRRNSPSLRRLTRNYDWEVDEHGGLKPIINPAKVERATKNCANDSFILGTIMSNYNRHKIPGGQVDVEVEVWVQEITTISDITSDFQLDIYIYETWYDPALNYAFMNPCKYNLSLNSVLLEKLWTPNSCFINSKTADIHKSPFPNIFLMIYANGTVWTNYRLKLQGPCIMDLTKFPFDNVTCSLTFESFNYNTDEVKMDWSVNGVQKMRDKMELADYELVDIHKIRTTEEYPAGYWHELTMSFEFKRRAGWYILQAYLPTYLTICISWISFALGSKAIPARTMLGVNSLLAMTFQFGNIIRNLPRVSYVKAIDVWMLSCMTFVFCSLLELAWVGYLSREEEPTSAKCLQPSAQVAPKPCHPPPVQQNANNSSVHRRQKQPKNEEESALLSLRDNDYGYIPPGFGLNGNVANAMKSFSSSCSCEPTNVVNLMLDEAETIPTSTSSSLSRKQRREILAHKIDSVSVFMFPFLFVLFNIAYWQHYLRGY
The following applies: agonist; ND96, clamped at -60 mV.

Assay [6] has as its target T5, LGC-40 (Caenorhabditis elegans, UniProt Q22741).
T5 construct: full-length untagged cDNA in KSM vector, cRNA in Xenopus laevis oocytes; pentameric, expressed alone
T5 sequence (Q22741 23-494): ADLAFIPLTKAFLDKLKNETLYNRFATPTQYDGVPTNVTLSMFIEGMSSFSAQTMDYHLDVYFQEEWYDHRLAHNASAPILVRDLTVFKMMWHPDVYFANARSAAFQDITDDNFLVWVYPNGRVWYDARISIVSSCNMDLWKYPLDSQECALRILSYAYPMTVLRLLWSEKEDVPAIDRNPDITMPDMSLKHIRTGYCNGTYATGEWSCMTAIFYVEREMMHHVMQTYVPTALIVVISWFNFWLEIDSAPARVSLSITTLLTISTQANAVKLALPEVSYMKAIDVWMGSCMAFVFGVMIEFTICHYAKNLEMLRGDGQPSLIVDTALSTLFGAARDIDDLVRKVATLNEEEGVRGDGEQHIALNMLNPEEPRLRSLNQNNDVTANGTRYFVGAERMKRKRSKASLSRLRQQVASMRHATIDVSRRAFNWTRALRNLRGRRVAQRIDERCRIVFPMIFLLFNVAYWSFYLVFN

Assay [7] has as its target T6, LGC-58 (Caenorhabditis elegans, UniProt Q2WF65).
T6 construct: full-length untagged cDNA in KSM vector, cRNA in Xenopus laevis oocytes; pentameric, expressed alone
T6 sequence (Q2WF65 21-546): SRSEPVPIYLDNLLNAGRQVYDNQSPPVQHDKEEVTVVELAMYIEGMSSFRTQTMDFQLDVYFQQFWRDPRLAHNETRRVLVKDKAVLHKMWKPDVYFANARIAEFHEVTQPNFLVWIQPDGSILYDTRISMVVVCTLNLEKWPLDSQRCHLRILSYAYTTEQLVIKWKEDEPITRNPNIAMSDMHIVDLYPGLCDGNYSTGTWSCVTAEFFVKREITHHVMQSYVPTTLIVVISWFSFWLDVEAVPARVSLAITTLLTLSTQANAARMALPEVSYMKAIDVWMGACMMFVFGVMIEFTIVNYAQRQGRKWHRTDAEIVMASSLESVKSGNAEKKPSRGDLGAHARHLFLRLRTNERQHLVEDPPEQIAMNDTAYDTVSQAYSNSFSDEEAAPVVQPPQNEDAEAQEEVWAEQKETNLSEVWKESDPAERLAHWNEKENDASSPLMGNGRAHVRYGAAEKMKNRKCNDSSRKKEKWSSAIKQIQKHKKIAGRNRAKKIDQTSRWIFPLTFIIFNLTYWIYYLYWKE

Take `NC[C@H](O)c1ccc(O)cc1` [octopamine]: in assay [1] (read-out: EC50), the EC50 (as a rule, the concentration at which the effect is half-maximal) came to 921 µM.
As to `COC(=O)[C@@H]1[C@H]2C[C@H]3c4[nH]c5ccccc5c4CCN3C[C@@H]2CC[C@@H]1O` [yohimbine], the IC50 (as a rule, the concentration that gives 50% inhibition) in assay [2] was 4 µM.
Consider `CC(=O)OCC[N+](C)(C)C` [acetylcholine], for which the EC50 in assay [1] (read-out: EC50) was 1290 µM; in assay [3] it was 19 µM; in assay [4], 115 µM; in assay [5], “the ACh-induced dose–response curve for LGC-46”; in assay [6] it was 117 µM; in assay [7], 41 µM.
As to `NCCc1ccc(O)cc1` [tyramine], in assay [1] (read-out: EC50), the EC50 was 686 µM.
For the compound `C[N+](C)(C)CCO` [choline], the EC50 in assay [4] was found to be 22 µM; in assay [6] it was 15 µM; in assay [7], 15 µM.
As to `O=C1C[C@@H]2OCC=C3CN4CC[C@]56c7ccccc7N1[C@H]5[C@H]2[C@H]3C[C@H]46` [strychnine], the EC50 in assay [1] was 7.5 µM.
For `NC1=NCC2c3ccccc3Cc3ccccc3N12` (stereo not drawn) [epinastine], the EC50 in assay [1] (read-out: EC50) was found to be 10 µM. In assay [2], this compound showed a 50% inhibitory concentration (IC50) of 1 µM.
